Data taken from patent publication US20230000892A1, “Solution, Lotion, Gel, and Cream for Use to Prevent Razor Bumps” (priority 2021, published 2023).

System: razor bumps
Experiment: proof of concept use of acne gels, creams, suspension and lotions immediately after shaving to prevent razor bumps
Assay type: in vivo, human
Settings: concentration down to at least 0.75% within the gel

For clindamycin phosphate, which “adequacy of lower concentration for preventing razor bumps” value is on record?
Its value is “sufficiently adequate”.
